Measured values: patent US9187465B2, “Oxazole tyrosine kinase inhibitors” (Sareum Limited, priority 2007, dated 2015)

Columns and labels:
Assay type in all cases: biochemical
human FLT4 = target: T1, human FLT4 (Homo sapiens, UniProt P35916); experiment: FLT4 kinase assay (DELFIA enzyme inhibition); conditions: read-out: FLT4 IC50
T1 construct: a construct expressing the human FLT4 (789-1207) with an amino terminal GST tag; host or cells: Sf9 insect cells (baculovirus)
Outline: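 GST-tagged human FLT4 (789-1207) from Sf9 cells phosphorylates a biotinylated MET (Tyr1253)-derived peptide for 30 min at room temperature, stopped with EDTA. Phosphopeptide is captured on Neutravidin and detected with Eu-labelled anti-phosphotyrosine antibody by time-resolved fluorescence; IC50 from % inhibition curves.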

human Aurora A = target: T2, human Aurora A (Homo sapiens, UniProt O14965); experiment: Aurora A kinase assay (DELFIA enzyme inhibition); conditions: read-out: Aurora A IC50
T2 construct: Histidine tag (N); host or cells: Sf9 insect cells (baculovirus)
T2 sequence (O14965 1-403): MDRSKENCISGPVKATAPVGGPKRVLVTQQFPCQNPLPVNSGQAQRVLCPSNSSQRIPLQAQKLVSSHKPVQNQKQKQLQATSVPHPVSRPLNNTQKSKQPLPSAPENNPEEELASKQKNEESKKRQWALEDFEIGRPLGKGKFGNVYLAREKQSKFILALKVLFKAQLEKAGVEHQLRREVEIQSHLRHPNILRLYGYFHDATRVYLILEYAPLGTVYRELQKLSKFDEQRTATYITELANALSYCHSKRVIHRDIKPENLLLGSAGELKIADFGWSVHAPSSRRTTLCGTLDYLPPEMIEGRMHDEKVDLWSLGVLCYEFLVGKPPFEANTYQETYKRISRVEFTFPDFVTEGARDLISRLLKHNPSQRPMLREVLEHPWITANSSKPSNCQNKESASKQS
Outline: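 DELFIA read-out (time-resolved Eu fluorescence, 620 nm emission) after Neutravidin capture of biotinylated peptide substrate and antibody detection. Reaction: Ni-agarose-purified Aurora A, 30 min at room temperature, stopped with 100 mM EDTA.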

human FLT3 = target: T3, human FLT3 (Homo sapiens, UniProt P36888); experiment: FLT3 kinase assay (DELFIA enzyme inhibition)
T3 construct: a construct expressing the human FLT3 (564-993) with an amino terminal GST tag; host or cells: Sf9 insect cells (baculovirus)
T3 sequence (P36888 564-993): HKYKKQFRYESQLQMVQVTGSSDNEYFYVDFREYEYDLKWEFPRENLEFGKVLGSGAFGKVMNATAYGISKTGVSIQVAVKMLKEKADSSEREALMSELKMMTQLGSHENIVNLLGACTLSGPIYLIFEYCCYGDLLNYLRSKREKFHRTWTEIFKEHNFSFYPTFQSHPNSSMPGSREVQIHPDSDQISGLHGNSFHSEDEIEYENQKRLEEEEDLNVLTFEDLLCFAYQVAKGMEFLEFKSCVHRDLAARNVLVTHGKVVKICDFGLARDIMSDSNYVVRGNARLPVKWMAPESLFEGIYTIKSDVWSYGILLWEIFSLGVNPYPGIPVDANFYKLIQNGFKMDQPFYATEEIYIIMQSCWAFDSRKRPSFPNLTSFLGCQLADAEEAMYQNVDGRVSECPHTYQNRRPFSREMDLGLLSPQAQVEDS
Method: A GST-kinase fusion protein of 70 KDa was produced using sf9 baculovirus expression system, with a construct expressing the human FLT3 (564-993) with an amino terminal GST tag. The protein was purified by one-step affinity chromatography using glutathione-agarose.
FLT3 enzyme activity is determined using a Dissociation Enhanced Lanthanide Fluorescent Immunoassay (DELFIA) with a peptide substrate derived from the Gastrin Precursor (Tyr 87) peptide […] with a core sequence: EAYGW.
The amount of phosphorylated peptide produced is detected by means of a phospho-Tyrosine specific Europium-labelled antibody using Time-Resolved Fluorescence at Excitation 360-35 nm and Emission 620-35 nm.
Assay reactions are set up in a 25 uL final volume on a 96 well plate. […] The reaction is allowed to proceed for 30 minutes at room temperature before stopping with 100 μL Stop solution comprising of 100 mM EDTA, 1×BSA blocker in TBS (Perbio) and 0.05% Surfact-Amps20 (Perbio).
The stopped reaction is transferred to a black 96-well Neutravidin-coated plate (Perbio) and incubated for 30 minutes to capture the biotinylated peptide substrate. After washing wells 3 times with 200 uL TBS/T buffer, Anti-Phospho-Tyr-100 antibody labelled with Eu—N1 (Perkin Elmer AD0159) is added to all wells for 60 minutes at room temperature. After a repeat washing step, DELFIA Enhancement solution (Perkin Elmer) is added to all wells for 5 minutes and the fluorescence measured on a plate reader Analyst HT (Molecular Devices).
The % inhibition of the activity is calculated and plotted in order to determine the concentration of test compound required to inhibit 50% of the enzyme activity (IC50).

T1 sequence (P35916 789-1207): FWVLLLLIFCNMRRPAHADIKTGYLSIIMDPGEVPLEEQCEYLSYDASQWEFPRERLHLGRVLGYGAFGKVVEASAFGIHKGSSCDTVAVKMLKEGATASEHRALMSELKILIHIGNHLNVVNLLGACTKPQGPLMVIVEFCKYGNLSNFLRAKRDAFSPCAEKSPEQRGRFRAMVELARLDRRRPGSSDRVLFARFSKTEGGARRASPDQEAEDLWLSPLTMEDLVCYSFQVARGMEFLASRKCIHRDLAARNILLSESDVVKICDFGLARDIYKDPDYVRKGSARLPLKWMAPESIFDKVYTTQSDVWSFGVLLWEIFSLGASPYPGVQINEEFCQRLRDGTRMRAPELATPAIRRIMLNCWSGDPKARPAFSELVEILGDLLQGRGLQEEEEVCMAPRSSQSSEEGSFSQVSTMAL

Structure (SMILES) | IC50 (human FLT4) | IC50 (human Aurora A) | IC50 (human FLT3)
NC(=O)c1nc(-c2c(F)cccc2F)oc1Nc1ccc(-n2ccnc2)cc1 [Example Q-24, 5-(4-(1H-imidazol-1-yl)phenylamino)-2-(2,6-difluorophenyl)oxazole-4-carboxamide] | < 10 µM | < 10 µM | < 10 µM
NC(=O)c1nc(-c2c(F)cccc2F)oc1Nc1ccc(S(N)(=O)=O)cc1 [Example Q-25, 2-(2,6-difluorophenyl)-5-(4-(sulfonamide)phenylamino)oxazole-4-carboxamide] | < 10 µM | < 10 µM | < 10 µM
CNS(=O)(=O)c1ccc(Nc2oc(-c3c(F)cccc3F)nc2C(N)=O)cc1 [Example Q-27, 2-(2,6-difluorophenyl)-5-(4-(N′-methylsulfonamide)phenylamino)oxazole-4-carboxamide] | < 10 µM | < 10 µM | < 10 µM
NC(=O)c1nc(-c2c(F)cccc2F)oc1Nc1ccc(S(=O)(=O)N2CCOCC2)cc1 [Example Q-29, 2-(2,6-difluorophenyl)-5-(4-(morpholinosulfonyl)phenylamino)oxazole-4-carboxamide] | < 10 µM | < 10 µM | < 10 µM
NC(=O)c1nc(-c2c(F)cccc2F)oc1Nc1ccc(-n2cncn2)cc1 [Example Q-30, 5-(4-(1H-1,2,4-triazol-1-yl)phenylamino)-2-(2,6-difluorophenyl)oxazole-4-carboxamide] | < 10 µM | < 10 µM | < 100 µM
NC(=O)c1nc(-c2c(F)cccc2F)oc1Nc1ccc(-n2cnnn2)cc1 [Example Q-31, 5-(4-(1H-tetrazol-1-yl)phenylamino)-2-(2,6-difluorophenyl)oxazole-4-carboxamide] | < 10 µM | < 10 µM | < 10 µM
NC(=O)c1nc(-c2c(F)cccc2F)oc1Nc1ccc(C2=NNC(=O)C2)cc1 [Example Q-32, 2-(2,6-difluorophenyl)-5-(4-(5-oxo-4,5-dihydro-1H-pyrazol-3-yl)phenylamino)oxazole-4-carboxamide] | < 10 µM | < 10 µM | < 10 µM
NC(=O)c1nc(-c2c(F)cccc2F)oc1Nc1ccc(-c2cc(CO)on2)cc1 [Example Q-33, 2-(2,6-difluorophenyl)-5-(4-(5-(hydroxymethyl)isoxazol-3-yl)phenylamino)oxazole-4-carboxamide] | < 10 µM | < 10 µM | < 100 µM
NC(=O)c1nc(-c2c(F)cccc2F)oc1Nc1ccc(-c2nnn[nH]2)cc1 [Example Q-34, 5-(4-(1H-tetrazol-5-yl)phenylamino)-2-(2,6-difluorophenyl)oxazole-4-carboxamide] | < 10 µM | < 10 µM | < 10 µM
NC(=O)c1nc(-c2c(Cl)cccc2Cl)oc1Nc1ccc(N2CCNCC2)cc1 [Example Q-35, 2-(2,6-dichlorophenyl)-5-(4-(piperazin-1-yl)phenylamino)oxazole-4-carboxamide] | < 10 µM | < 10 µM | < 10 µM
Cc1cccc(C)c1-c1nc(C(N)=O)c(Nc2ccc(N3CCNCC3)cc2)o1 [Example Q-37, 2-(2,6-dimethylphenyl)-5-(4-(piperazin-1-yl)phenylamino)oxazole-4-carboxamide] | < 10 µM | < 10 µM | < 10 µM
NC(=O)c1nc(-c2c(F)cccc2F)oc1Nc1ccc(N2CCNCC2)nc1 [Example Q-47, 2-(2,6-difluorophenyl)-5-(6-(piperazin-1-yl)pyridin-3-ylamino)oxazole-4-carboxamide] | < 10 µM | < 10 µM | < 10 µM
NC(=O)c1nc(-c2c(F)cccc2F)oc1Nc1ccc(CN2CCCCC2)cc1 [Example Q-56, 2-(2,6-difluorophenyl)-5-(4-(piperidin-1-ylmethyl)phenylamino)oxazole-4-carboxamide] | < 10 µM | < 10 µM | < 10 µM
CS(=O)(=O)c1ccc(Nc2oc(-c3cccc4[nH]ncc34)nc2C(N)=O)cc1 [Example Q-58, 2-(1H-indazol-4-yl)-5-(4-(methylsulfonyl)phenylamino)oxazole-4-carboxamide] | < 10 µM | < 10 µM | < 10 µM
NC(=O)c1nc(-c2cccc3[nH]ncc23)oc1Nc1ccc(N2CCN(C(=O)C(F)(F)F)CC2)cc1 [Example Q-60, 2-(1H-indazol-4-yl)-5-(4-(4-(2,2,2-trifluoroacetyl)piperazin-1-yl)phenylamino)oxazole-4-carboxamide] | < 10 µM | < 10 µM | < 10 µM

Other lines, results leading:

IC50 (human FLT4) | IC50 (human Aurora A) | IC50 (human FLT3) | Structure (SMILES)
< 10 µM | < 10 µM | < 10 µM | COc1ccc(-c2oc(Nc3ccccc3)nc2C(N)=O)cc1 [Example R-1, 5-(4-methoxyphenyl)-2-(phenylamino)oxazole-4-carboxamide]
< 10 µM | < 10 µM | < 10 µM | COc1ccc(-c2oc(Nc3ccccc3OC)nc2C(N)=O)cc1 [Example R-2, 5-(4-methoxyphenyl)-2-(2-methoxyphenylamino)oxazole-4-carboxamide]
< 10 µM | < 10 µM | < 10 µM | COc1ccc(-c2oc(Nc3ccccc3C)nc2C(N)=O)cc1 [Example R-5, 2-(o-toluidino)-5-(4-methoxyphenyl)oxazole-4-carboxamide]
< 10 µM | < 10 µM | < 10 µM | COc1ccc(-c2oc(Nc3ccccc3F)nc2C(N)=O)cc1 [Example R-8, 2-(2-fluorophenylamino)-5-(4-methoxyphenyl)oxazole-4-carboxamide]
< 10 µM | < 10 µM | < 10 µM | COc1cccc(Nc2nc(C(N)=O)c(-c3ccc(N4CCNCC4)cc3)o2)c1 [Example R-12, 2-(3-methoxyphenylamino)-5-(4-(piperazin-1-yl)phenyl)oxazole-4-carboxamide]
< 10 µM | < 10 µM | < 10 µM | NC(=O)c1nc(Nc2cccnc2)oc1-c1ccc(N2CCNCC2)cc1 [Example R-14, 5-(4-(piperazin-1-yl)phenyl)-2-(pyridin-3-ylamino)oxazole-4-carboxamide]
< 10 µM | < 10 µM | < 10 µM | NC(=O)c1nc(Nc2ccc3[nH]ncc3c2)oc1-c1ccc(N2CCNCC2)cc1 [Example R-15, 2-(1H-indazol-5-ylamino)-5-(4-(piperazin-1-yl)phenyl)oxazole-4-carboxamide]
< 10 µM | < 10 µM | < 10 µM | NC(=O)c1nc(Nc2ccc3cn[nH]c3c2)oc1-c1ccc(N2CCNCC2)cc1 [Example R-16, 2-(1H-indazol-6-ylamino)-5-(4-(piperazin-1-yl)phenyl)oxazole-4-carboxamide]
< 10 µM | < 10 µM | < 10 µM | NC(=O)c1nc(Nc2cnn(Cc3ccccc3)c2)oc1-c1ccc(N2CCNCC2)cc1 [Example R-17, 2-(1-benzyl-1H-pyrazol-4-ylamino)-5-(4-(piperazin-1-yl)phenyl)oxazole-4-carboxamide]
